# Assay results from patent publication US20260207606A1, “DOSING SCHEDULE OF A SOLID DISPERSION OF A HER2 INHIBITOR” (Boehringer Ingelheim International GmbH, priority 2022, published 2026).
# Test system: NSCLC
# Experiment: Phase Ia dose escalation trial: tumour response according to RECIST v1.1 in NSCLC patients
# Type: in vivo, human
# Settings: for Best overall response (RECIST 1.1): Complete response, % / Best overall response (RECIST 1.1): Non-CR/Non-PD, % / Best overall response (RECIST 1.1): Not evaluable, % / Best overall response (RECIST 1.1): Partial response, % / Best overall response (RECIST 1.1): Progressive disease, % / Best overall response (RECIST 1.1): Stable disease, %: regardless of confirmation, data lock 16 Mar. 2023
# Text: Tumour assessments should include computed tomography (CT) scans of the chest, abdomen/pelvis (or PET/CT) and a brain MRI at screening. If clinically indicated, imaging of any other known or suspected sites of disease (e.g. bone) using an appropriate method (CT scan, MRI, PET/CT, or bone scan) should be performed. The same radiographic procedure must be used throughout the trial. Assessments will be performed by the investigator at screening (≤28 days prior to initiation of treatment), every 2 cycles (6 weeks ±5 days), at the end-of-treatment (EOT) visit (if not performed within the previous 3 weeks), and at the discretion of the investigator, and copies may be collected by the sponsor or designee. Wherever possible the assessment schedule should not be changed, but if there is an interruption or delay to treatment, alteration of the tumour assessment schedule to align with clinical assessments is allowed. Additional unscheduled tumour assessments may be performed at the discretion of the investigator. If the patient stops trial medication for a reason other than progression, tumour assessment according to RECIST v1.1 continues until progression (or until one of the following occurs; death, lost to follow-up, end of the trial).
# Tumour response is evaluated according to RECIST Version 1.1 (Eisenhauer E A, Therasse P, Bogaerts J, Schwartz L H, Sargent D, Ford R, et al. New response evaluation criteria in solid tumours: revised RECIST guideline (version 1.1). Eur J Cancer. 2009; 45:228-247). RECIST 1.1 is used for a) whole-body assessment (classical RECIST 1.1) and b) the tumour assessment of non-CNS areas. The assessment according to classical RECIST 1.1 by the investigator and/or the local radiologist is the basis for continuation or discontinuation of the trial in an individual patient (in addition to safety). No whole-body RECIST assessment is performed in the dose escalation part.
# [1] = 5 NSCLC patients pre-treated with trastuzumab deruxtecan, data cut-off 17 Jul. 2023
compound,measurement,setting,value
"C=CC(=O)NC1CCN(c2ncc3ncnc(Nc4ccc(Oc5ccc6c(c5)ncn6C)c(C)c4)c3n2)CC1 [compound (1), N-{1-[8-({3-methyl-4-[(1-methyl-1H-1,3-benzodiazol-5-yl)oxy]phenyl}amino)-[1,3]diazino[5,4-d]pyrimidin-2-yl]piperidin-4-yl}prop-2-enamide]","Best overall response (RECIST 1.1): Complete response, %","15 mg BID, 1 NSCLC patients",0.0%
same,"Best overall response (RECIST 1.1): Non-CR/Non-PD, %","15 mg BID, 1 NSCLC patients",0.0%
same,"Best overall response (RECIST 1.1): Not evaluable, %","15 mg BID, 1 NSCLC patients",0.0%
same,"Best overall response (RECIST 1.1): Partial response, %","15 mg BID, 1 NSCLC patients",0.0%
same,"Best overall response (RECIST 1.1): Progressive disease, %","15 mg BID, 1 NSCLC patients",0.0%
same,"Best overall response (RECIST 1.1): Stable disease, %","15 mg BID, 1 NSCLC patients",100.0%
same,"Best overall response (RECIST 1.1): Complete response, %","30 mg BID, 2 NSCLC patients",0.0%
same,"Best overall response (RECIST 1.1): Non-CR/Non-PD, %","30 mg BID, 2 NSCLC patients",0.0%
same,"Best overall response (RECIST 1.1): Not evaluable, %","30 mg BID, 2 NSCLC patients",0.0%
same,"Best overall response (RECIST 1.1): Partial response, %","30 mg BID, 2 NSCLC patients",50.0%
same,"Best overall response (RECIST 1.1): Progressive disease, %","30 mg BID, 2 NSCLC patients",0.0%
same,"Best overall response (RECIST 1.1): Stable disease, %","30 mg BID, 2 NSCLC patients",50.0%
same,"Best overall response (RECIST 1.1): Complete response, %","60 mg BID, 3 NSCLC patients",0.0%
same,"Best overall response (RECIST 1.1): Non-CR/Non-PD, %","60 mg BID, 3 NSCLC patients",0.0%
same,"Best overall response (RECIST 1.1): Not evaluable, %","60 mg BID, 3 NSCLC patients",0.0%
same,"Best overall response (RECIST 1.1): Partial response, %","60 mg BID, 3 NSCLC patients",66.7%
same,"Best overall response (RECIST 1.1): Progressive disease, %","60 mg BID, 3 NSCLC patients",0.0%
same,"Best overall response (RECIST 1.1): Stable disease, %","60 mg BID, 3 NSCLC patients",33.3%
same,"Best overall response (RECIST 1.1): Complete response, %","60 mg QD, 2 NSCLC patients",0.0%
same,"Best overall response (RECIST 1.1): Non-CR/Non-PD, %","60 mg QD, 2 NSCLC patients",0.0%
same,"Best overall response (RECIST 1.1): Not evaluable, %","60 mg QD, 2 NSCLC patients",0.0%
same,"Best overall response (RECIST 1.1): Partial response, %","60 mg QD, 2 NSCLC patients",50.0%
same,"Best overall response (RECIST 1.1): Progressive disease, %","60 mg QD, 2 NSCLC patients",0.0%
same,"Best overall response (RECIST 1.1): Stable disease, %","60 mg QD, 2 NSCLC patients",50.0%
same,"Best overall response (RECIST 1.1): Complete response, %","100 mg BID, 3 NSCLC patients",0.0%
same,"Best overall response (RECIST 1.1): Non-CR/Non-PD, %","100 mg BID, 3 NSCLC patients",0.0%
same,"Best overall response (RECIST 1.1): Not evaluable, %","100 mg BID, 3 NSCLC patients",0.0%
same,"Best overall response (RECIST 1.1): Partial response, %","100 mg BID, 3 NSCLC patients",33.0%
same,"Best overall response (RECIST 1.1): Progressive disease, %","100 mg BID, 3 NSCLC patients",0.0%
same,"Best overall response (RECIST 1.1): Stable disease, %","100 mg BID, 3 NSCLC patients",66.7%
same,"Best overall response (RECIST 1.1): Complete response, %","120 mg QD, 4 NSCLC patients",0.0%
same,"Best overall response (RECIST 1.1): Non-CR/Non-PD, %","120 mg QD, 4 NSCLC patients",0.0%
same,"Best overall response (RECIST 1.1): Not evaluable, %","120 mg QD, 4 NSCLC patients",0.0%
same,"Best overall response (RECIST 1.1): Partial response, %","120 mg QD, 4 NSCLC patients",50.0%
same,"Best overall response (RECIST 1.1): Progressive disease, %","120 mg QD, 4 NSCLC patients",25.0%
same,"Best overall response (RECIST 1.1): Stable disease, %","120 mg QD, 4 NSCLC patients",25.0%
same,"Best overall response (RECIST 1.1): Complete response, %","150 mg BID, 2 NSCLC patients",0.0%
same,"Best overall response (RECIST 1.1): Non-CR/Non-PD, %","150 mg BID, 2 NSCLC patients",0.0%
same,"Best overall response (RECIST 1.1): Not evaluable, %","150 mg BID, 2 NSCLC patients",0.0%
same,"Best overall response (RECIST 1.1): Partial response, %","150 mg BID, 2 NSCLC patients",50.0%
same,"Best overall response (RECIST 1.1): Progressive disease, %","150 mg BID, 2 NSCLC patients",0.0%
same,"Best overall response (RECIST 1.1): Stable disease, %","150 mg BID, 2 NSCLC patients",50.0%
same,"Best overall response (RECIST 1.1): Complete response, %","180 mg QD, 5 NSCLC patients",0.0%
same,"Best overall response (RECIST 1.1): Non-CR/Non-PD, %","180 mg QD, 5 NSCLC patients",0.0%
same,"Best overall response (RECIST 1.1): Not evaluable, %","180 mg QD, 5 NSCLC patients",20.0%
same,"Best overall response (RECIST 1.1): Partial response, %","180 mg QD, 5 NSCLC patients",20.0%
same,"Best overall response (RECIST 1.1): Progressive disease, %","180 mg QD, 5 NSCLC patients",0.0%
same,"Best overall response (RECIST 1.1): Stable disease, %","180 mg QD, 5 NSCLC patients",60.0%
same,"Best overall response (RECIST 1.1): Complete response, %","240 mg QD, 5 NSCLC patients",0.0%
same,"Best overall response (RECIST 1.1): Non-CR/Non-PD, %","240 mg QD, 5 NSCLC patients",0.0%
same,"Best overall response (RECIST 1.1): Not evaluable, %","240 mg QD, 5 NSCLC patients",60.0%
same,"Best overall response (RECIST 1.1): Partial response, %","240 mg QD, 5 NSCLC patients",40.0%
same,"Best overall response (RECIST 1.1): Progressive disease, %","240 mg QD, 5 NSCLC patients",0.0%
same,"Best overall response (RECIST 1.1): Stable disease, %","240 mg QD, 5 NSCLC patients",0.0%
same,"Best overall response (RECIST 1.1): Complete response, %","300 mg QD, 5 NSCLC patients",0.0%
same,"Best overall response (RECIST 1.1): Non-CR/Non-PD, %","300 mg QD, 5 NSCLC patients",0.0%
same,"Best overall response (RECIST 1.1): Not evaluable, %","300 mg QD, 5 NSCLC patients",80.0%
same,"Best overall response (RECIST 1.1): Partial response, %","300 mg QD, 5 NSCLC patients",0.0%
same,"Best overall response (RECIST 1.1): Progressive disease, %","300 mg QD, 5 NSCLC patients",0.0%
same,"Best overall response (RECIST 1.1): Stable disease, %","300 mg QD, 5 NSCLC patients",20.0%
same,"tumour shrinkage, mean",[1],−22.5%
same,"tumour shrinkage, median",[1],−16.1%
same,"tumour shrinkage, up to",[1],−53%
same,"Best overall response (RECIST 1.1): Complete response, %","BID Total, 11 NSCLC patients",0.0%
same,"Best overall response (RECIST 1.1): Non-CR/Non-PD, %","BID Total, 11 NSCLC patients",0.0%
same,"Best overall response (RECIST 1.1): Not evaluable, %","BID Total, 11 NSCLC patients",0.0%
same,"Best overall response (RECIST 1.1): Progressive disease, %","BID Total, 11 NSCLC patients",0.0%
same,"Best overall response (RECIST 1.1): Stable disease, %","BID Total, 11 NSCLC patients",54.5%
same,"Best overall response (RECIST 1.1): Complete response, %","QD Total, 21 NSCLC patients",0.0%
same,"Best overall response (RECIST 1.1): Non-CR/Non-PD, %","QD Total, 21 NSCLC patients",0.0%
same,"Best overall response (RECIST 1.1): Not evaluable, %","QD Total, 21 NSCLC patients",38.1%
same,"Best overall response (RECIST 1.1): Partial response, %","QD Total, 21 NSCLC patients",28.6%
same,"Best overall response (RECIST 1.1): Progressive disease, %","QD Total, 21 NSCLC patients",4.8%
same,"Best overall response (RECIST 1.1): Stable disease, %","QD Total, 21 NSCLC patients",28.6%
same,median duration of response (Kaplan Meier estimates),all treated patients with NSCLC,6.9 months
